According to the supplement of paper PMC10307832:

Columns and labels:
Test in all cases: relative viability (nuclei count vs DMSO), 5 days (fraction); higher = more cells survive
NCI-H1651 = tested on: NCI-H1651
Method in brief: (§1)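 Medians of duplicate plates are given as relative viability. That measure is the nuclei count in treated wells divided by the count in vehicle wells. Counts were taken on 4× images of lung cancer cell lines in 1536-well plates, 5 days after pin-tool dosing the day after seeding with one drug alone or a fixed anchor-drug dose plus five library-drug doses (not always all listed) in √10 steps.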

NCI-H2087 = tested on: NCI-H2087
Method in brief: as §1

NCI-H1993 = tested on: NCI-H1993
Method in brief: as §1

NCI-H647 = tested on: NCI-H647
Method in brief: as §1

NCI-H3122 = tested on: NCI-H3122
Method in brief: as §1

LXF-289 = tested on: LXF-289
Method in brief: as §1

CAL-12T = tested on: CAL-12T
Method in brief: as §1

HOP-62 = tested on: HOP-62
Method in brief: as §1

NCI-H650 = tested on: NCI-H650
Method in brief: as §1

LCLC-103H = tested on: LCLC-103H
Method in brief: as §1

NCI-H2023 = tested on: NCI-H2023
Method in brief: as §1

COR-L 105 = tested on: COR-L 105
Method in brief: as §1

SK-MES-1 = tested on: SK-MES-1
Method in brief: as §1

EPLC-272H = tested on: EPLC-272H
Method in brief: as §1

RERF-LC-KJ = tested on: RERF-LC-KJ
Method in brief: as §1

NCI-H1563 = tested on: NCI-H1563
Method in brief: as §1

NCI-H596 = tested on: NCI-H596
Method in brief: as §1

COR-L23 = tested on: COR-L23
Method in brief: as §1

PC-14 = tested on: PC-14
Method in brief: as §1

NCI-H2085 = tested on: NCI-H2085
Method in brief: as §1

A-427 = tested on: A-427
Method in brief: as §1

NCI-H1975 = tested on: NCI-H1975
Method in brief: as §1

NCI-H2170 = tested on: NCI-H2170
Method in brief: as §1

CCCCCCCCCCCC1=C(O)C(=O)C=C(O)C1=O [Embelin] + C[C@@H](Oc1cc(-c2cnn(C3CCNCC3)c2)cnc1N)c1c(Cl)ccc(F)c1Cl [Crizotinib] (partner 1 µM)
relative viability (NCI-H1651; first compound 0.08 µM): 0.855 | relative viability (NCI-H1651; first compound 0.8 µM): 0.843 | relative viability (NCI-H1651; first compound 2.53 µM): 0.988 | relative viability (NCI-H1651; first compound 8 µM): 0.837 | relative viability (NCI-H2087; first compound 0.08 µM): 0.886 | relative viability (NCI-H2087; first compound 0.8 µM): 0.899 | relative viability (NCI-H2087; first compound 2.53 µM): 0.766 | relative viability (NCI-H2087; first compound 8 µM): 0.937 | relative viability (NCI-H1993; first compound 0.08 µM): 1 | relative viability (NCI-H1993; first compound 0.8 µM): 0.844 | relative viability (NCI-H1993; first compound 2.53 µM): 0.943 | relative viability (NCI-H1993; first compound 8 µM): 0.793 | relative viability (NCI-H647; first compound 0.08 µM): 1.44 | relative viability (NCI-H647; first compound 0.8 µM): 1.08 | relative viability (NCI-H647; first compound 2.53 µM): 1.48 | relative viability (NCI-H647; first compound 8 µM): 1.17 | relative viability (NCI-H3122; first compound 0.08 µM): 0.296 | relative viability (NCI-H3122; first compound 0.8 µM): 0.293 | relative viability (NCI-H3122; first compound 2.53 µM): 0.273 | relative viability (NCI-H3122; first compound 8 µM): 0.282 | relative viability (LXF-289; first compound 0.08 µM): 0.835 | relative viability (LXF-289; first compound 0.8 µM): 0.818 | relative viability (LXF-289; first compound 2.53 µM): 0.884 | relative viability (LXF-289; first compound 8 µM): 0.896 | relative viability (CAL-12T; first compound 0.08 µM): 0.615 | relative viability (CAL-12T; first compound 0.8 µM): 0.785 | relative viability (CAL-12T; first compound 2.53 µM): 0.724 | relative viability (CAL-12T; first compound 8 µM): 0.801 | relative viability (HOP-62; first compound 0.08 µM): 0.957 | relative viability (HOP-62; first compound 0.8 µM): 0.926 | relative viability (HOP-62; first compound 2.53 µM): 0.857 | relative viability (HOP-62; first compound 8 µM): 0.82 | relative viability (NCI-H650; first compound 0.08 µM): 0.772 | relative viability (NCI-H650; first compound 0.8 µM): 0.817 | relative viability (NCI-H650; first compound 2.53 µM): 0.711 | relative viability (NCI-H650; first compound 8 µM): 0.782 | relative viability (LCLC-103H; first compound 0.08 µM): 1.06 | relative viability (LCLC-103H; first compound 0.8 µM): 1.01 | relative viability (LCLC-103H; first compound 2.53 µM): 1.08 | relative viability (LCLC-103H; first compound 8 µM): 0.959 | relative viability (NCI-H2023; first compound 0.08 µM): 0.654 | relative viability (NCI-H2023; first compound 0.8 µM): 0.638 | relative viability (NCI-H2023; first compound 2.53 µM): 0.801 | relative viability (NCI-H2023; first compound 8 µM): 0.609 | relative viability (COR-L 105; first compound 0.08 µM): 0.727 | relative viability (COR-L 105; first compound 0.8 µM): 0.932 | relative viability (COR-L 105; first compound 2.53 µM): 0.875 | relative viability (COR-L 105; first compound 8 µM): 1.04 | relative viability (SK-MES-1; first compound 0.08 µM): 1.01 | relative viability (SK-MES-1; first compound 0.8 µM): 1.1 | relative viability (SK-MES-1; first compound 2.53 µM): 0.952 | relative viability (SK-MES-1; first compound 8 µM): 1.11 | relative viability (EPLC-272H; first compound 0.08 µM): 0.802 | relative viability (EPLC-272H; first compound 0.8 µM): 1.08 | relative viability (EPLC-272H; first compound 2.53 µM): 1.4 | relative viability (EPLC-272H; first compound 8 µM): 0.765 | relative viability (RERF-LC-KJ; first compound 0.08 µM): 0.883 | relative viability (RERF-LC-KJ; first compound 0.8 µM): 0.912 | relative viability (RERF-LC-KJ; first compound 2.53 µM): 0.906 | relative viability (RERF-LC-KJ; first compound 8 µM): 0.937 | relative viability (NCI-H1563; first compound 0.08 µM): 0.8 | relative viability (NCI-H1563; first compound 0.8 µM): 0.837 | relative viability (NCI-H1563; first compound 2.53 µM): 0.785 | relative viability (NCI-H1563; first compound 8 µM): 0.899 | relative viability (NCI-H596; first compound 0.08 µM): 1.06 | relative viability (NCI-H596; first compound 0.8 µM): 1.62 | relative viability (NCI-H596; first compound 2.53 µM): 1.2 | relative viability (NCI-H596; first compound 8 µM): 1.01 | relative viability (COR-L23; first compound 0.08 µM): 0.691 | relative viability (COR-L23; first compound 0.8 µM): 0.762 | relative viability (COR-L23; first compound 2.53 µM): 0.701 | relative viability (COR-L23; first compound 8 µM): 0.745 | relative viability (PC-14; first compound 0.08 µM): 0.916 | relative viability (PC-14; first compound 0.8 µM): 0.845 | relative viability (PC-14; first compound 2.53 µM): 0.921 | relative viability (PC-14; first compound 8 µM): 0.891 | relative viability (NCI-H2085; first compound 0.08 µM): 0.666 | relative viability (NCI-H2085; first compound 0.8 µM): 0.948 | relative viability (NCI-H2085; first compound 2.53 µM): 0.925 | relative viability (NCI-H2085; first compound 8 µM): 0.835 | relative viability (A-427; first compound 0.08 µM): 0.905 | relative viability (A-427; first compound 0.8 µM): 0.862 | relative viability (A-427; first compound 2.53 µM): 1.03 | relative viability (A-427; first compound 8 µM): 0.881 | relative viability (NCI-H1975; first compound 0.08 µM): 1.1 | relative viability (NCI-H1975; first compound 0.8 µM): 0.999 | relative viability (NCI-H1975; first compound 2.53 µM): 1 | relative viability (NCI-H1975; first compound 8 µM): 1.04 | relative viability (NCI-H2170; first compound 0.08 µM): 1.22 | relative viability (NCI-H2170; first compound 0.8 µM): 1.18 | relative viability (NCI-H2170; first compound 2.53 µM): 1.4 | relative viability (NCI-H2170; first compound 8 µM): 1.36
